Measurements published in ChEMBL document CHEMBL1201862, “PubChem BioAssay data set” (2004).
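Step 1: Grow cells in 96-well plates. Step 2: Expose to compound for 48 hours at 5 concentrations. Step 3: Interpolate endpoints linearly; if unreached, use highest concentration. GI50 is the concentration that inhibits growth by half.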 Calls of active or inactive are those of the source. Rule as the data show it: active = GI50 up to about 1.1 µM and inactive = higher.

Key:
Test in all cases: inhibition of tumour cell growth, NCI panel, 48 h
[1] = test system: 786-0
[2] = test system: A549
[3] = test system: EKVX
[4] = test system: HL-60
[5] = test system: HOP-92
[6] = test system: M14
[7] = test system: MDA-N
[8] = test system: NCI-H522
[9] = test system: OVCAR-3
[10] = test system: OVCAR-5
[11] = test system: SF-295
[12] = test system: SF-539
[13] = test system: SK-MEL-28
[14] = test system: SK-MEL-2
[15] = test system: SK-MEL-5
[16] = test system: SK-OV-3
[17] = test system: SNB-75
[18] = test system: SR
[19] = test system: TK-10
[20] = test system: UACC-257

N[C@H]1c2c(Br)sc(Br)c2C(=O)[C@H]1O
GI50 [1]: 18.6 µM (inactive) | GI50 [2]: 24.9 µM (inactive) | GI50 [3]: 12.9 µM (inactive) | GI50 [4]: 2.85 µM (inactive) | GI50 [5]: 21.5 µM (inactive) | GI50 [6]: 8.69 µM (inactive) | GI50 [7]: 13.2 µM (inactive) | GI50 [8]: 3.18 µM (inactive) | GI50 [9]: 7.36 µM (inactive) | GI50 [10]: 22 µM (inactive) | GI50 [11]: 21.7 µM (inactive) | GI50 [12]: 18.5 µM (inactive) | GI50 [13]: 10.3 µM (inactive) | GI50 [14]: 23.9 µM (inactive) | GI50 [15]: 12.5 µM (inactive) | GI50 [16]: 12.3 µM (inactive) | GI50 [17]: 29.2 µM (inactive) | GI50 [18]: 2.69 µM (inactive) | GI50 [19]: 96.8 µM (inactive) | GI50 [20]: 14.2 µM (inactive)

CN(C)CC1CCC/C(=C\c2ccc(OC(=O)/C=C/c3ccc(Cl)cc3)cc2)C1=O (stereo not given)
GI50 [1]: 1.07 µM (active) | GI50 [2]: 8.49 µM (inactive) | GI50 [3]: 7.14 µM (inactive) | GI50 [4]: 1.07 µM (active) | GI50 [5]: 1.57 µM (inactive) | GI50 [6]: 6.1 µM (inactive) | GI50 [7]: 6.9 µM (inactive) | GI50 [8]: 0.916 µM (active) | GI50 [9]: 4.97 µM (inactive) | GI50 [10]: 16.7 µM (inactive) | GI50 [11]: 7.6 µM (inactive) | GI50 [12]: 2.57 µM (inactive) | GI50 [13]: 6.14 µM (inactive) | GI50 [14]: 9.82 µM (inactive) | GI50 [15]: 2.16 µM (inactive) | GI50 [16]: 21.3 µM (inactive) | GI50 [17]: 8.93 µM (inactive) | GI50 [18]: 1.09 µM (active) | GI50 [19]: 1.31 µM (inactive) | GI50 [20]: 11.5 µM (inactive)

COc1cc(/C=C2\CC(C)C/C(=C\c3ccc(O)c(OC)c3)C2=O)ccc1O (stereo not given)
GI50 [1]: > 20.2 µM (inactive) | GI50 [2]: 3.64 µM (inactive) | GI50 [3]: 13.8 µM (inactive) | GI50 [4]: 2.98 µM (inactive) | GI50 [5]: 2.92 µM (inactive) | GI50 [6]: 3.04 µM (inactive) | GI50 [7]: 2.54 µM (inactive) | GI50 [8]: 2.11 µM (inactive) | GI50 [9]: 2.8 µM (inactive) | GI50 [10]: 19.6 µM (inactive) | GI50 [11]: 10.6 µM (inactive) | GI50 [12]: 3.12 µM (inactive) | GI50 [13]: 3.42 µM (inactive) | GI50 [14]: 4.53 µM (inactive) | GI50 [15]: 1.82 µM (inactive) | GI50 [16]: 3.49 µM (inactive) | GI50 [17]: 4.24 µM (inactive) | GI50 [18]: 2.86 µM (inactive) | GI50 [19]: 5.45 µM (inactive) | GI50 [20]: 3.87 µM (inactive)
